Source: patent US6713468B2, “Methods of using thiazolobenzoheterocycles” (Aventis Pharma S.A., priority 1997, dated 2004)

| melting point [°C] | Compound |
| --- | --- |
| 255 | N=c1sc2cc(OC(F)(F)F)cc3c2n1CC(=O)N3 [Example 37, 2-imino-8-trifluoromethoxy-2H,4H-thiazolo[3,4,5-de]quinoxalin-5(6H)-one] |
| 192 | N=c1sc2cc(OC(F)(F)F)cc3c2n1CCC3=O [Example 8, 2-imino-8-trifluoromethoxy-2H,4H-thiazolo-[5,4,3-ij]quinolin-6-one] |
